System: p100/p120
Assay: p100/p120 electrophoretic mobility, MDCK strain II cells
Type: cell-based
Details: 200 nM PDB, 30 minutes
Description: p100 and p120 electrophoretic mobility is affected by PDB in a number of different epithelial cell lines. LLC-PK1, (a porcine kidney cell line), MDCK strain II cells and gut-derived Caco-2 cells were treated with or without 200 nM PDB for 30 minutes, lysed into Laemmli sample buffer, separated by electrophoresis and analysed by immunoblotting.
MDCK strain I and II cells were provided by Barry Gumbiner (memorial Sloan-Kettering Cancer Center, NY). LLC-PK1 and Caco-2 cells were obtained from the European Collection of Animal Cell Cultures. All cells were maintained at 37° C. under 5% CO2 in humidified air. MDCK strain I and II cells were maintained in MEM containing 10% FCS, 100 U/ml penicillin, 100 μg/ml streptomycin and 2 mM L-glutamine. Caco-2 cells were maintained in MEM containing 15% FCS, 1% non-essential amino acids and 1 μg/ml bovine insulin (Sigma I-6634). LLC-PK1 cells were grown in M199 (Gibco), 10% FCS, 100 U/ml penicillin, 100 μg/ml streptomycin and 2 mM L-glutamine. For whole cell lysate analysis, 10^5 cells were plated on 6.5 mm diameter, 0.4 μm, polycarbonate Transwell filters from Costar, in 0.25 ml of medium. The basolateral chamber contained 0.75 ml of medium. For immunoprecipitation, 5×10^5 cells were plated onto 24 mm Transwell filters, in 2 ml of medium, with 3 ml of medium in the lower chamber. Cells were used 4-7 days after plating. […]

`CCCC(=O)O[C@@H]1[C@@H](C)[C@@]2(O)[C@@H](C=C(CO)C[C@]3(O)C(=O)C(C)=C[C@@H]23)[C@@H]2C(C)(C)[C@]12OC(=O)CCC` [PDB, Phorbol-12,13-dibutyrate] was tested, and the “migration of p100 and p120” value was “increased markedly”.
